The values that follow are results of earlier work, collected in patent US7718634B2, “Method of treatment using bisphosphonic acid” (Hoffman-La Roche Inc., priority 2002, dated 2010).

In one data set the test system is bone resorption. The following applies: animal models of bone resorption.

With `CCCCCN(C)CCC(O)(P(=O)(O)O)P(=O)(O)O` [ibandronate, 1-hydroxy-3-(N-methyl-N-pentyl)aminopropylidene-1,1-bisphosphonic acid], the “times more potent than alendronate” value in the data set with bone resorption (relative to alendronate) is on record as 10 times. Moreover, in the data set with bone resorption (relative to clodronate), the “times more potent than clodronate” value is given as 500 times. For the same molecule, the “times more potent than pamidronate” value in the data set with bone resorption (relative to pamidronate) was 50 times. Moreover, the “times more potent than risedronate” value in the data set with bone resorption (relative to risedronate) is 2 times. For the same molecule, in the data set with osteoclasts (at high doses), the number of osteoclasts entry is recorded as “reduces the number of osteoclasts”. Moreover, in the data set on osteoclasts (in vivo), the “bone resorption and mineralization” value is recorded as “inhibits bone resorption without any impairment of mineralization”; the osteoclastic activity result was “decrease osteoclastic activity”.
